Results published in the supplement of paper PMC6470124.

What was measured:
[1] = absolute recovery over mixed-bed multilayer solid-phase extraction; higher = better recovery; details: enrichment method: SPE
Summary of the method: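 Absolute recovery rests on background-corrected response ratios of pre- versus post-spiked samples, averaged over at least two replicates. Wastewater (100–250 mL, pH 6.5, glass-fibre filtered) was spiked at 1000 ng/L and unfiltered nanopure water (1000 mL) at 200 ng/L, before or after three-layer mixed-bed cartridge extraction or not at all, with exceptions for some classes. Analysis after internal standard addition used liquid chromatography with high-resolution tandem mass spectrometry in both ionisation modes.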

[2] = LC retention time (Atlantis T3, 5-95% MeOH gradient, 0.1% formic acid); higher = more retained / less polar
Summary of the method: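 Retention times were recorded for reference standards (purity ≥ 95%) on a polar reversed-phase C18 column (Atlantis T3, 3 × 150 mm, 3 μm) at 0.3 mL/min. Elution used water and methanol, each with 0.1% formic acid, in a gradient from 5 to 95% methanol over 17.5 min. Detection was by high-resolution tandem mass spectrometry on a QExactive Plus, with positive and negative electrospray in separate runs. Peaks were found and integrated in TraceFinder (5 ppm tolerance, at least three points per peak) and then checked by hand.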

[3] = absolute recovery over vacuum-assisted evaporative concentration; higher = better recovery; details: enrichment method: VEC
Summary of the method: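 Absolute recovery was calculated as (response ratio pre − unspiked)/(post − unspiked) × 100 from averages of ≥ 2 replicates. Influent (6 mL), effluent (15 mL), and surface and nanopure water (60 mL) samples were spiked with standards before concentration, after concentration, or not at all, at 200 ng/L for nanopure and surface water or 1000 ng/L for wastewater, with class- and compound-specific adjustments. Samples were evaporated at 55 °C and 20 mbar to about 0.3 mL, made up to 0.4 mL and centrifuged, then internal standards were added before LC-HRMS/MS analysis.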

Row | absolute recovery ([1]; nanopure water) | absolute recovery ([1]; surface water) | absolute recovery ([1]; wastewater effluent) | absolute recovery ([1]; wastewater influent) | LC retention time [2] | absolute recovery ([3]; wastewater effluent) | absolute recovery ([3]; wastewater influent) | SMILES
1 | 69.5% | 50.8% | 76.7% | 88.3% | 15.2 min | 101% | 82.2% | CC1(C)C(=O)Oc2ccc(OS(C)(=O)=O)cc21 [Ethofumesat-2-keto]
2 | 93.1% | 89.4% | 89% | 98.3% | 19.6 min | 92.7% | 85.2% | CC(=O)OCC(=O)C1(O)C(C)CC2C3CCC4=CC(=O)C=CC4(C)C3(F)C(O)CC21C (stereo not given) [Betamethasone 21-acetate C]
3 | 101% | 95% | 96.2% | 98.7% | 18 min | 111% | 101% | COC(=O)c1ccc(CNS(C)(=O)=O)cc1S(=O)(=O)[N-]C(=O)Nc1nc(OC)cc(OC)n1 [Mesosulfuron-methyl]
4 | 93.2% | 92.8% | 94.6% | 79.7% | 14.6 min | 105% | 107% | COc1ccc(C(C[N+](C)(C)[O-])C2(O)CCCCC2)cc1 (stereo not given) [Venlafaxine-N-Oxide]
5 | 95.8% | 101% | 91% | – | 19.6 min | 103% | – | CCCCC(=O)N(Cc1ccc(-c2ccccc2-c2nnn[n-]2)cc1)C(C(=O)[O-])C(C)C (stereo not given) [Valsartan]
6 | 99.2% | 103% | 99.5% | 93.3% | 17.9 min | 93% | 89.9% | O=c1c(-c2ccc(O)cc2)coc2cc([O-])cc(O)c12 [Genistein]
7 | 96.2% | 91.2% | 94.4% | 90.7% | 17.7 min | 101% | 109% | CSc1nc(=O)c(C(C)(C)C)n[n-]1 [Metribuzin-Desamino (=DA)]
8 | 97.3% | 98.9% | 92.1% | 75.4% | 10.5 min | 108% | 104% | CC(C)[NH2+]CC(O)COc1ccc(CC(=O)[O-])cc1 (stereo not given) [Atenolol-acid (=Metoprolol acid)]
9 | 96.8% | 38% | 92.6% | 95.3% | 12.1 min | 101% | 109% | CS(=O)(=O)c1ccc(C(=O)[O-])c(Cl)c1 [Sulcotrion-CMBA]
10 | 35.1% | 27.7% | 47.9% | 52.5% | 11.1 min | 76.9% | 79.1% | C[NH+]1CCCC1c1cccnc1 (stereo not given) [Nicotine]
11 | 86.7% | 94.5% | 94.3% | 91.1% | 6.58 min | 88.8% | 12.8% | Nc1ccn(C2OC(CO)C(O)C2(F)F)c(=O)n1 (stereo not given) [Gemcitabin]
12 | 4.8% | 0.3% | 0.9% | 1.7% | 6.6 min | 107% | 102% | CCCS(=O)(=O)[O-] [1-Propanesulfonate]
13 | 12% | 11% | 11.7% | 17% | 7.95 min | 93.6% | 27% | Cn1sccc1=O [2-Methyl-4-isothiazolin-3-one]
14 | 100% | 96.8% | 93.7% | 86.3% | 14.4 min | 105% | 100% | CC(C)[NH2+]CC(O)COc1cccc2ccccc12 (stereo not given) [Propranolol]
15 | 50.9% | 69.4% | 63.7% | 73.7% | 8.99 min | 103% | 92.2% | CNC(=C[N+](=O)[O-])NCCSCc1ccc(C[N+](C)(C)[O-])o1 [Ranitidin-N-oxid]
16 | 95.2% | 97.5% | 94.2% | 96% | 15.3 min | 97.7% | 93.4% | NC(=O)N1c2ccccc2C(O)C(O)c2ccccc21 (stereo not given) [Carbamazepin-10-11-dihydro-10-11-dihydroxy]

The remaining lines, values behind:

Row | SMILES | absolute recovery ([1]; nanopure water) | absolute recovery ([1]; surface water) | absolute recovery ([1]; wastewater effluent) | absolute recovery ([1]; wastewater influent) | LC retention time [2] | absolute recovery ([3]; wastewater effluent) | absolute recovery ([3]; wastewater influent)
17 | CCCC(C)C1(CC)C(=O)N=C([S-])NC1=O (stereo not given) [Thiopental] | 49.9% | 83.4% | 66.9% | 73.1% | 18.7 min | 77.5% | 82.5%
18 | NC1=[NH+]CCN1Cc1ccc(Cl)nc1 [Imidacloprid-desnitro] | 113% | 110% | 104% | 106% | 8.99 min | 107% | 103%
19 | CCCC(NC(C)C(=O)N1C(C(=O)[O-])CC2CCCCC21)C(=O)OCC (stereo not given) [Perindopril] | 97.7% | 88.8% | 91.5% | 138% | 15.5 min | 95% | 96.1%
20 | CSC1=NC(C)(c2ccccc2)C(=O)N1Nc1ccccc1 (stereo not given) [Fenamidone] | 100% | 107% | 101% | 91.6% | 19.2 min | 106% | 98.7%
21 | Cc1ccc(-c2c(Cl)nc(C#N)n2S(=O)(=O)N(C)C)cc1 [Cyazofamid] | 66.4% | 64.6% | 58% | 63.2% | 20.3 min | 99.5% | 104%
22 | CNC(=O)ON=CC(C)(C)SC [Aldicarb] | 88.2% | – | – | – | 16 min | 99.1% | 91.7%
23 | C[NH2+]C1(c2ccccc2Cl)CCCCC1=O (stereo not given) [Ketamin] | 83.7% | 82.3% | 82.9% | 90.4% | 11.7 min | 101% | 105%
24 | COc1ccc2c3c1OC1C(O)CCC4C(C2)[NH+](C)CCC341 (stereo not given) [Dihydrocodeine] | 98.5% | 107% | 94.1% | 97.7% | 9.1 min | 108% | 100%
25 | CCOc1nc2cccc(C(=O)[O-])c2n1Cc1ccc(-c2ccccc2-c2nnn[n-]2)cc1 [Candesartan] | 96.9% | 97.3% | 90.7% | 92.5% | 18.7 min | 104% | 99.4%
26 | CCC(=O)OC(Cc1ccccc1)(c1ccccc1)C(C)C[NH+](C)C (stereo not given) [Propoxyphene] | 85.3% | 94.6% | 91.5% | 72.4% | 15.6 min | 108% | 110%
27 | O=C(Nc1ccc(F)cc1F)c1cccnc1Oc1cccc(C(F)(F)F)c1 [Diflufenican] | 96.6% | 92.4% | 88% | 87.2% | 21.4 min | 106% | 101%
28 | O=C([O-])C[N-]S(=O)(=O)C(F)(F)C(F)(F)C(F)(F)C(F)(F)C(F)(F)C(F)(F)C(F)(F)C(F)(F)F [FOSAA] | 60.5% | 85.9% | 76.6% | 32.2% | 22.2 min | 117% | –
29 | CCS(=O)(=O)c1cccnc1S(=O)(=O)[N-]C(=O)Nc1nc(OC)cc(OC)n1 [Rimsulfuron] | 127% | 124% | 95% | 95.2% | 17.6 min | 93.8% | 85%
30 | C[N+](C)([O-])CCC(c1ccccc1)c1ccccn1 (stereo not given) [Pheniramine-N-oxide] | 94.5% | 93.4% | 88.3% | 89% | 11.6 min | 105% | 94.2%
31 | OCC(O)C[NH+]1CCN(c2ccccc2)CC1 (stereo not given) [Dropropizine] | 108% | 108% | 99.5% | 86.7% | 9.49 min | 106% | 98.7%
32 | COCc1cnc(C2=NC(C)(C(C)C)C(=O)N2)c(C(=O)[O-])c1 (stereo not given) [Imazamox] | 92.3% | 93.4% | 90.7% | 90.4% | 15.1 min | 104% | 94.7%
33 | CCCCCCCCCC[N+](C)(C)[O-] [NN-Dimethyldicylamin-N-oxid] | 85.4% | 110% | 93.4% | 58.3% | 16.9 min | 103% | 110%
34 | N#CN=C1SCCN1Cc1ccc(Cl)nc1 [Thiacloprid] | 97.8% | – | 96.9% | 87.5% | 15.1 min | 102% | 106%
35 | CCNc1nc(O)nc(NCC)n1 [Simazin-2-hydroxy] | 84.5% | 78.7% | 88.3% | 82.7% | 10.1 min | 105% | 107%
36 | CN1CCN(C)C1=O [1-3-Dimethyl-2-imidazolidinon] | 26% | 29.7% | 29.2% | 56.1% | 10.1 min | 96.5% | 104%
37 | O=C(NCCN1CCOCC1)c1ccc(Cl)cc1 [Moclobemid] | 91.4% | 100% | 90.8% | 84.5% | 11.6 min | 105% | 94%
38 | CC(C)Nc1nc(O)nc(NC(C)C)n1 [Propazine-2-hydroxy I] | 103% | 96.9% | 94.2% | 88% | 12.7 min | 104% | 113%
39 | COC(=O)c1ccccc1S(=O)(=O)[N-]C(=O)N(C)c1nc(C)nc(OC)n1 [Tribenuron-methyl] | – | 24.9% | 38% | – | 18.1 min | 124% | 119%
40 | Nc1c(Cl)c(F)nc(OCC(=O)[O-])c1Cl [Fluroxypyr (free acid)] | 97% | 95.8% | 91.7% | 89.2% | 17.1 min | 104% | 95.6%
41 | Nc1ccn(C2OC(CO)C(O)C2O)c(=O)n1 (stereo not given) [Cytarabin] | 103% | 112% | 104% | 64.6% | 15.6 min | 89.3% | –
42 | CC(Oc1ccc(Cl)cc1Cl)C(=O)[O-] (stereo not given) [Dichlorprop] | 97.8% | 95.4% | – | 87.9% | 20.1 min | 104% | 99.8%
43 | CCCCC(C#N)(Cn1cncn1)c1ccc(Cl)cc1 (stereo not given) [Myclobutanil] | 102% | 91.9% | 94% | 85.1% | 19.8 min | 109% | 101%
